# Assay results reported in patent US20190282580A1, “PRO-INFLAMMATORY ROLE FOR ADENOSINE UPTAKE AND METABOLISM” (priority 2016, published 2019).
# Entries after “also recorded” stand apart in the source; their conditions may differ.
# Assays:
# IRF3 = IRF3 nuclear translocation (in situ immunofluorescence) in primary human endothelial cells after dsDNA or hCMV; assay type: cell-based; settings: primary human endothelial cells (HUVEC) supplemented with the substance, then DNA treatment or hCMV infection
# From the text: (§1) Extracellular Ado supplementation enhances anti-viral innate responses: To date, all loss-of function mutations in ADA2 that cause PAN/DADA2 vasculitis either reduce protein levels of ADA2 or dramatically impair enzymatic activity of ADA2, such that loss of enzymatic activity in serum is the defining characteristic of the disease. Loss of ADA2 activity in serum alters catabolism of Ado/dAdo released into circulation from cells and tissues, or produced by dephosphorylation of extracellular ATP/dATP. Ado and dAdo are profoundly immuno-modulatory nucleosides, exerting many effects on cells. Vascular endothelial cells metabolize Ado/dAdo in blood, yet excessive or dysregulated Ado/dAdo signaling has not been examined in endothelium. To examine the effects of Ado on vascular endothelial cells, HUVEC were supplemented with extracellular Ado 24 h prior to treatment with DNA or infection with hCMV.
# Cells: Primary human cells were obtained from Lonza as single donor aliquots. Wherever possible, both male and female donors were analyzed. Human umbilical vascular endothelial cells (HUVEC) and Human aortic endothelial cells (HAEC) were maintained in EGM-2 Bulletkit growth media (Lonza) supplemented with 2% HI-FBS. […]
# IRF3 immunostaining: Cells were fixed with 4% PFA for 20 min, washed 3 times with 1×PBS, permeabilized with 0.2% Triton X-100 for 10 min, and blocked with 10% FBS for 30 min Cells were incubated with IRF-3 primary antibody (clone FL-425, Santa Cruz) at 1:200 dilution for 30 min and washed 3 times with 1×PBS. […] Images were acquired at 10× magnification on ImageXpress Micro (Molecular Devices), and images were analyzed using the enhanced translocation module of MetaXpress (Molecular Devices). Individual cells were scored as positive for nuclear translocation if >70% of IRF3 fluorescence was spatially correlated with DAPI fluorescence. […]
# IFNβ [1] = assay: IFNβ induction (TaqMan qRT-PCR) in primary human endothelial cells after dsDNA or hCMV; assay type: cell-based; settings: for IFNβ induction: HUVEC supplemented with the substance, then DNA treatment or hCMV infection
# From the text: as §1
# Cells: Primary human cells were obtained from Lonza as single donor aliquots. Wherever possible, both male and female donors were analyzed. Human umbilical vascular endothelial cells (HUVEC) and Human aortic endothelial cells (HAEC) were maintained in EGM-2 Bulletkit growth media (Lonza) supplemented with 2% HI-FBS. Human dermal microvascular endothelial cells (HDMVEC), human brain microvascular endothelial cells (HBMVEC), and human kidney microvascular endothelial cells (HKMVEC) were maintained in EBM-2MV Bulletkit growth media (Lonza) supplemented with 5% HI-FBS. Normal human bronchial […] cells (NHBE) were maintained in BEGM Bulletkit growth media (Lonza). U937 were maintained in RPMI supplemented with 5% HI-FBS. For activation of cell-intrinsic innate immune responses through the STING-IFN-I pathway, all cells were stimulated for 3 h with poly dA:dT or VACV70 dsDNA (200-1000 ng/mL) using LyoVec as a transfection reagent (Invivogen), or infected for 3 h with hCMV MOLD at MOI=1.
# Real-time PCR: Total RNA was extracted using the Quick-RNA MiniPrep Plus kit (Zymo Research). Total RNA (200-1000 ng) was used to synthesize complementary DNA using the qScript cDNA synthesis kit (Quanta). Samples were diluted 10-fold and gene expression was analyzed by real-time quantitative PCR on a CFX96 Touch Detection System (Bio-Rad) using FastStart SYBR Green Master Mix (Roche) or TaqMan Universal PCR Master Mix (ThermoFisher Scientific). […]
# [2] = tested on: pro-inflammatory and anti-viral genes; assay: Pro-inflammatory cytokine and innate immune gene expression in endothelial cells (qRT-PCR, RNAseq); assay type: cell-based, human; settings: for pro-inflammatory cytokine production: after viral infection, extracellular supplementation; for expression of IL-6 and TNF cytokines: endothelial cells after supplementation
# Protocol: (§2) Real-time PCR: Total RNA was extracted using the Quick-RNA MiniPrep Plus kit (Zymo Research). Total RNA (200-1000 ng) was used to synthesize complementary DNA using the qScript cDNA synthesis kit (Quanta). Samples were diluted 10-fold and gene expression was analyzed by real-time quantitative PCR on a CFX96 Touch Detection System (Bio-Rad) using FastStart SYBR Green Master Mix (Roche) or TaqMan Universal PCR Master Mix (ThermoFisher Scientific).
# RNAseq: Total RNA was extracted from 10^7 cultured cells using the Quick-RNA MiniPrep Plus kit (Zymo Research). RNA quality was assessed using an Agilent Tapestation, such that all samples should produce RIN^e scores above 9.0. For each sample, 500-1000 ng of total RNA was then prepared into an mRNA library using the Truseq Stranded mRNA Library Prep Kit (Illumina). Resulting libraries were then pooled at equimolar concentrations using Quant-iT PicoGreen dsDNA Assay Kit (Life Technologies) and were deep sequenced on an Illumina 2500 in Rapid Run Mode, producing between 10M and 90M single-end reads with lengths of 50 nucleotides per sample.
# The single-end reads that passed Illumina filters were filtered for reads aligning to tRNA, rRNA, adapter sequences, and spike-in controls. The reads were then aligned to UCSC hg19 reference genome using TopHat (v 1.4.1). DUST scores were calculated with PRINSEQ Lite (v 0.20.3) and low-complexity reads (DUST>4) were removed from the BAM files. The alignment results were parsed via the SAMtools to generate SAM files. Read counts to each genomic feature were obtained with the htseq-count program (v 0.6.0) using the “union” option. After removing absent features (zero counts in all samples), the raw counts were then imported to R/Bioconductor package DESeq2 [5] to identify differentially expressed genes among samples. DESeq2 normalizes counts by dividing each column of the count table (samples) by the size factor of this column. The size factor is calculated by dividing the samples by geometric means of the genes. This brings the count values to a common scale suitable for comparison. P-values for differential expression are calculated using binomial test for differences between the base means of two conditions. These p-values are then adjusted for multiple test correction using Benjamin Hochberg algorithm to control the false discovery rate. […] Cluster analyses including principal component analysis (PCA) and hierarchical clustering were performed using standard algorithms and metrics. Hierarchical clustering was performed using complete linkage with Euclidean metric.
# IFNβ [3] = assay: IFNβ induction in monocytes; assay type: cell-based, human
# Protocol: as §2
# Lentivirus production for shRNA and CRISPR: For shRNA experiments, sequences were selected from the Sigma mission 2.0 library. For CRISPR experiments, sgRNA sequences selected using the CHOPCHOP algorithm and were cloned into the lentiCRISPrv2 vector […]. Plasmids were transformed and amplified in Dh5α competent E. Coli, and purified using the EndoFree Plasmid Maxi kit (QIAGEN). For lentivirus preparation, 293T cells seeded in 6-well plates and transfected with pLKO.1 or lentiCRIPRv2 plasmids and MISSION Lentiviral Packaging Mix (Sigma), using JetPrime transfection reagent (Polyplus). After 24 h, media was changed to full growth media supplemented with 30% FBS. After 48 h, lentiviral supernatants were collected and HUVEC or U937 cells were spin-infected by centrifugation for 1 h at 37 C at 2000 rpm. Cells were selected in 3 ug/mL puromycin media for 2 weeks.
# STING = STING mRNA expression (TaqMan qRT-PCR) in HUVEC; assay type: cell-based, human; settings: supplemented cells, resting and stimulated
# Protocol: as §2
# vascular endothelium = settings: references 22-24; cited from earlier work
# IFNβ [4] = assay: IFNβ induction (TaqMan qRT-PCR) in primary human endothelial cells after dsDNA or hCMV; assay type: cell-based; settings: for hCMV induced IFNβ: pre-treatment, siControl and siADA2-treated endothelial cells (HUVEC, HBMVEC, HDMVEC)
compound,measurement,setting,value
"Nc1ncnc2c1ncn2[C@H]1C[C@H](O)[C@@H](CO)O1 [dAdo, 2′-deoxyadenosine]",IRF3 activation / nuclear translocation,IRF3,significantly enhances; also recorded: augmented
same,IFNβ induction,IFNβ [1],significantly enhances; also recorded: augmented
same,pro-inflammatory cytokine production,[2],enhances
same,IFNβ induction,IFNβ [3],enhanced
same,STING mRNA levels / expression,STING,up-regulated
same,uptake of circulating nucleoside by the vascular endothelium,vascular endothelium,within a few seconds
OCCN(CCO)c1nc(N2CCCCC2)c2nc(N(CCO)CCO)nc(N3CCCCC3)c2n1 [dipyridamole],expression of pro-inflammatory and anti-viral genes,"[2]; ADA2-depleted and dAdo-supplemented cells, whole-transcriptome RNAseq",broadly inhibited
same,cytokine production,[2]; ADA2/CECR1-depleted cells,reduces
same,IFNβ levels,IFNβ [4]; TREX1-depleted cells,dampened
same,dIno-augmented IFNβ,"IFNβ [4]; cells supplemented with dIno, sensitivity to DPM",sensitive
same,hCMV induced IFNβ,IFNβ [4],significantly reduced; also recorded: dose-dependent decrease
same,hCMV induced IFNβ,IFNβ [4]; listed as Dipyridamole,reduced
"OC[C@H]1O[C@@H](n2cnc3c(O)ncnc32)C[C@@H]1O [dIno, deoxyinosine]",IFNβ mRNA induction,"IFNβ [1]; prolonged supplementation of HUVEC, dsDNA treatment",specifically augmented
same,STING mRNA levels / expression,STING,up-regulated
OC[C@H]1O[C@@H](n2cnc3c2NC=NC[C@H]3O)C[C@@H]1O [pentostatin],augmentation of IRF3 and IFNβ responses by extracellular Ado and dAdo,"IFNβ [4]; in the presence of pentostatin to inhibit ADA2, endothelial cells",enhanced
"Nc1ncnc2c1ncn2[C@@H]1O[C@H](CO)[C@@H](O)[C@H]1O [Ado, adenosine]",IRF3 activation / nuclear translocation,IRF3,significantly enhanced; also recorded: augmented; also recorded: enhances
same,IFNβ induction,IFNβ [1],significantly enhanced; also recorded: augmented; also recorded: enhances
same,IFNβ induction,IFNβ [1]; listed as adenosine,enhances
same,pro-inflammatory cytokine production,[2],enhances
same,expression of IL-6 and TNF cytokines,[2],enhanced expression
same,expression of IL-6 and TNF cytokines,[2]; listed as adenosine,enhances
same,uptake of circulating nucleoside by the vascular endothelium,vascular endothelium,within a few seconds
"CCNC(=O)[C@H]1O[C@@H](n2cnc3c(N)ncnc32)[C@H](O)[C@@H]1O [NECA, 5′-N-ethylcarboxamidoadenosine]",IRF3 activation / nuclear translocation,IRF3,did not enhance; also recorded: no effect; also recorded: does not significantly affect
same,IFNβ induction,IFNβ [1],did not enhance; also recorded: does not significantly affect
